{"source": "paper PMC4298241", "about": "(ChemMedChem, 2014)", "key": {"[1]": {"tested_on": "KB 3-1 cervix cancer cell line", "conditions": "read-out: cytotoxicity IC50; cited from earlier work"}, "T. brucei (BSF)": {"tested_on": "T. brucei (BSF)", "experiment": "Alamar Blue viability test, T. brucei bloodstream form", "type": "cell-based", "conditions": "Trypanosoma brucei"}}, "note": "Read-outs that look alike come from different tables or passages of the source.", "data": [{"smiles": "CCCCCCC1CCCC(C2CCC([C@H]3CC[C@H]([C@H](O)CCCCCCCCCCCCC4=C[C@H](C)OC4=O)O3)O2)O1", "note": "(stereo partly drawn) [Compound 6, chamuvarinin]", "values": [{"measurement": "IC50", "setting": "[1]", "value": 0.0008, "unit": "µM"}, {"measurement": "EC50", "setting": "T. brucei (BSF); read-out: T.brucei(BSF) EC50", "value": "1.4 ± 0.1", "unit": "µM"}, {"measurement": "EC50", "setting": "T. brucei (BSF); read-out: pEC50 (converted)", "value": 1.38, "unit": "µM"}]}]}
